# From patent publication US20230337658A1, “COMPOSITIONS AND METHODS FOR ENHANCING SPERM CELL QUALITY” (ABS Global, Inc., priority 2022, published 2023)
# Where a name gives a salt, the structure may show the parent alone.
# Experiments:
# sexed semen samples = assay: Cellular function of sexed semen samples (mitochondrial membrane potential, motility); format: cell-based; conditions: sexed semen samples treated
# sperm cells [1] = assay: Staining sperm cells with Hoechst dye before sexing; format: cell-based; conditions: present during staining with Hoechst dye
# Procedure: (§1) Sample Preparation for Sperm Sexing: A stained sample was prepared at room temperature that contained 200 M/mL sperm cells in 0.06 mg/mL Hoechst 33342 diluted to final volume in Stain TALP with Magnetic Beads with (+clofilium) or without (control) such that clofilium would be at a final concentration of 5 μM in the final stained sample volume. The sample was then incubated in a 37° C. water bath for 45 minutes. After 45 minutes Red Stain TALP was added to the stained sample in a 2:1 v/v ratio. The sample+Red TALP was then thoroughly mixed using inversion, filtered using tube top 20 μm Partec filters (Partec#04-0042-2315), and aliquoted into round bottom 5 mL tubes.
# Sexing Cytometer Metrics: The stained, filtered sample was then run on proprietary sexing cytometers. The sample throughput was adjusted to 23,000 cells/sec and the detection and kill lasers were focused. To confirm proper laser focus, kill count assessments were performed before collecting sex skewed sample. A successful kill count has a population that is ≥75% dead and ≥95% sliced with at least 200 cells being counted. If an instrument could not achieve the above metrics, the instrument was not used to collect sex skewed semen. After a successful kill count, a gate was placed to collect the X chromosome cells, which is the cell population with the brighter Hoechst 33342 fluorescence as measured with a 355 nm wavelength excitation laser. Cytometer performance metrics were collected 15 minutes after instrument set up, and 15 minutes after the placement of the last sample collection tube, including the height of the Y-peak, the height of the X-peak, the height of the trough from the histogram of events per emitted fluorescent intensity, gated %, and dead %.
# sperm cells [2] = assay: Sexing cytometer metrics: eligible cells, skew; format: cell-based, bovine; conditions: 5 μM, n=10 sires
# Procedure: as §1
# Sexing Cytometer Metrics: The stained, filtered sample was then run on proprietary sexing cytometers. The sample throughput was adjusted to 23,000 cells/sec and the detection and kill lasers were focused. To confirm proper laser focus, kill count assessments were performed before collecting sex skewed sample. A successful kill count has a population that is ≥75% dead and ≥95% sliced with at least 200 cells being counted. […] After a successful kill count, a gate was placed to collect the X chromosome cells, which is the cell population with the brighter Hoechst 33342 fluorescence as measured with a 355 nm wavelength excitation laser. […]
# sperm cells [3] = assay: Pre-freeze and post-freeze motile cell quantification (CASA); format: cell-based, bovine; conditions: 5 μM, n=10 sires, compared to SOP
# Procedure: Sex Skewed Sample Collection and Processing: The sample was run to collect between 300 and 400 mL of sex skewed sample, the composition of which is approximately 17% TRIS A (Part 1) buffer, 80% sheath fluid, and 2% cell sample. The sample was collected in 50 mL conical tubes containing 5 mLs of TRIS A (Part 1), and each tube was filled to a max volume of 30 mL before being replaced. After the requisite total volume was collected, sexed sperm was centrifuged at room temperature at 2400×g for 10 minutes. The supernatant was aspirated and discarded to reach a 1 mL pellet volume. 144 μL of TRIS A (Part 1)/GTLS mixture containing 40 μM clofilium or no clofilium (control) was added to each pellet after resuspension. The tubes were then placed in beakers filled with 150 mL of room temperature water, to prevent cold shock, and were then transferred to a 4° C. cold room. […] The concentration of progressively motile cells was determined using the Hamilton Thorne IVOS II with […] […] After which 20 μLs of sample is added to 20 μLs of QC diluent, gently vortexed for 5 seconds, and read on the CASA fluorescent settings described above. The remainder of the straw volume is spread on a blood agar plate and left at 37° C. for 24 hours before bacterial colonies are counted. […]
# [4] = system: slaughterhouse oocytes fertilized with sexed semen; assay: In vitro fertilization (IVF) with sexed semen: embryo cleavage and blastocyst formation; format: cell-based, bovine
# Text: IVF Testable Unit Generation Design: This study utilizes sires from two breeds, Holstein and Jersey. The study design includes one ejaculate collection from 10 unique sires to generate sexed semen units in a split batch design with clofilium and a paired control.
# Final breed tally of the collections were 7 Holsteins and 3 Jersey sires. Ejaculates selected for use in this trial were processed following standard production procedures outlined in detail below. Insemination doses, freeze canes, and all associated documentation were blind labeled during the incoming quality check. This was to prevent technician bias on quality control assessments after freeze-thaw as well as during the IVF outcome quantitation assessments.
# After processing, the sexed semen was packaged and frozen during a regularly scheduled production freeze following standard operating procedures (SOPs). Within one week of unit generation, the outgoing quality control measurements were performed by a trained research technician. Post-thaw motile concentration and the presence/absence of bacterial contamination were completed. Insemination doses had to pass standard production outgoing quality control parameters to be utilized for the IVF trial.
# Each facility received the two treatment groups for each individual ejaculate. The two treatments from each split ejaculate were used concurrently to fertilize oocytes from the same pooled batch of slaughterhouse oocytes.
# Trained IVF technicians performed the outlined fertilizations. Day 2 cleavage rate, Day 7 and 8 blastocyst rates will be recorded, as well as polyspermy post-fertilization.
# Oocyte prep: Four well fertilization plates are prepared by filling all 4 wells with 400 μL of BO-IVF (MOFA Verona, Wis.) and equilibrated in a 37° C. 5% CO2 for at least 1 hour. […]
# Semen prep: Three insemination straws per treatment group are thawed at 37° C. for 45 seconds. […] A 5 μL sample aliquot is added to 95 μLs 4% NaCl to immobilize the cells, and cell concentration is quantified using a hemocytometer. Cells with visible membrane damage are not counted towards cell density calculations. […]
smiles,measurement,setting,value
"CCCCCCC[N+](CC)(CC)CCCCc1ccc(Cl)cc1 [clofilium tosylate, N-[4-(4-chlorophenyl)butyl]-N,N-diethylheptan-1-aminium]","cellular function, as measured by mitochondrial membrane potential",sexed semen samples,increased cellular function
same,"cellular function, as measured by motility",sexed semen samples,increased cellular function
same,eligibility (number of cells eligible for sexing),sperm cells [1],increase eligibility
same,resolution (separation of X- and Y-chromosome cell peaks in a histogram),sperm cells [1],increase resolution
same,sex skew,sperm cells [1],increase
same,time required to achieve staining saturation,sperm cells [1],reduce the time
same,Skew (percentage of X-chromosome bearing sperm cells),sperm cells [2],remains unaffected
same,"percentage of eligible cells (live, sexed X chromosome bearing cells)","sperm cells [2]; compared to SOP at start and end of the collection process, FIG. 4",increased eligible percent
same,number of straws obtained from a single sample catch tube (pre-freeze motile cell quantification),"sperm cells [3]; post instrument processing, FIG. 5",improvement
same,motile cells (in millions) per insemination dose,"sperm cells [3]; post-freeze, FIGS. 6A, 6B",more motile cells
same,percentage of normalized cleaved embryos at day 2,"[4]; 5 μM throughout the sexing process, N=2 sires, normalized to the control process, FIG. 3A",improvement
same,percentage of day 7 blastocysts,"[4]; 5 μM throughout the sexing process, N=2 sires, normalized to the control process, FIG. 3B",improvement
same,"fertility of semen, as assessed by embryo cleavage and blastocyst formation post-IVF",[4]; included in the sexing process,improves fertility
